Test results published in ChEMBL document CHEMBL1201862, “PubChem BioAssay data set” (2004).
Active and inactive are the calls of the source.

Experiments:
[1] = Luminescence Cell-Based Dose Retest to Confirm Inhibitors of Cancer Stem Cells. [Related pubchem assays (depositor defined):AID2717, AID2721]; format: functional; conditions: Homo sapiens
[2] = blockers of HIV-1 envelope-mediated cell-cell fusion – cherry-pick, dose response (AID 652057); format: functional, cell-based
INS1 = test: INS-1E survival protection against cytokine death – cell-based, luminescence, retest, dose response (AID 449756); format: functional; conditions: Rattus norvegicus;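 also: cell death triggered by IL-1 beta plus TNF-alpha plus IFN-gamma mixture; protective hits raise ATP signal compared with cytokine alone wells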
[3] = HIV-1 AD8 envelope cell-cell fusion blockers – cherry-pick, dose response (AID 652062); format: functional, cell-based;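 also: luciferase signal from cell-cell fusion driven by HIV-1 clade B AD8 Env; potency is for inhibitors of fusion seen as a drop in luminescence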
[4] = blockers of HIV-1 ZM109 envelope-driven cell-cell fusion – HeLa effector, CEM target cells, luciferase, cherry-pick, dose response (AID 652058); format: functional, cell-based;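 also: luciferase signal from HIV-1 Env mediated cell-cell fusion of effector and target cells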
[5] = Trypanosoma cruzi growth suppression in host cells – NIH3T3 host cells, beta-gal luminescence, confirmation (AID 2044); format: functional, cell-based;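 also: intracellular parasites grown in NIH/3T3 mouse fibroblasts as host cells; luminescent beta-galactosidase reporter signal from transgenic T. cruzi replicating inside host cells; inhibitors lower the luminescence signal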
[6] = off-target signal loss in HeLa-CEM21 co-culture – HeLa F-luc CTL cells, cherry-picked, counter-screen for HIV-1 Env fusion inhibitor project, dose response (AID 652040); format: functional, cell-based;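 also: potency for signal decrease marking cytotoxic or nonspecific inhibition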
[7] = THP-1 cell cytotoxicity, dose response, cytotoxicity control for non-replicating M. tuberculosis project (AID 489025); format: functional
[8] = HepG2 cell cytotoxicity, dose response, cytotoxicity control for non-replicating M. tuberculosis project (AID 489018); format: functional; conditions: Mycobacterium tuberculosis
[9] = target: Neurotensin receptor type 1 (Homo sapiens, UniProt P30989); format: functional;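 also: Image-based confirmatory dose-response assay measuring agonist activity at NTR1; NTR1-expressing U2OS osteosarcoma cells imaged for beta-arrestin GFP spot formation; agonist potency where compounds increase beta-arrestin recruitment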
[10] = Vero E6 cell cytotoxicity, dose response, cytotoxicity control for non-replicating M. tuberculosis project, secondary assay (AID 492998); format: functional, VeroE6; conditions: Vero C1008
[11] = viability loss in CEM21 cells – cell-based, CellTiter-Glo luminescence, cherry-picked, cytotoxicity control for viral fusion inhibitor project, dose response (AID 652042); format: functional;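 also: potency for signal decrease meaning cytotoxicity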
[12] = target: G-protein coupled receptor 55 (Homo sapiens, UniProt Q9Y2T6); test: inhibition of LPI-stimulated GPR55 beta-arrestin translocation – imaging, U2OS, beta-arrestin-GFP, LPI agonist, primary screen (AID 2013); format: functional;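 also: antagonist potency measured as reduced agonist-driven arrestin aggregation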
[13] = NIH3T3 cell viability loss – ATP luminescence, mouse fibroblasts, counter-screen, dose response (AID 2010); format: functional, cell-based;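 also: cells exposed to compound for about 90 hours before reading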
cells = format: functional
[14] = target: DNA dC->dU-editing enzyme APOBEC-3G (Homo sapiens, UniProt Q9HC16); test: Dose Response confirmation of small molecule APOBEC3G DNA Deaminase Inhibitors via a fluorescence-based single-stranded DNA deaminase assay. [Related pubchem assays (depositor defined):AID493012, AID493028]; format: functional
[15] = target: DNA dC->dU-editing enzyme APOBEC-3A (Homo sapiens, UniProt P31941); test: A3A deaminase inhibition for selectivity – biochemical, dose response (AID 504722); format: functional
Beta-lactamase [16] = target: T1, Beta-lactamase (Pseudomonas aeruginosa, UniProt Q79MP6); test: […] counterscreen for selective VIM-2 inhibitors: dose response biochemical high throughput screening assay to identify inhibitors of IMP-1 metallo-beta-lactamase.
Beta-lactamase [17] = target: Beta-lactamase (Salmonella choleraesuis (strain SC-B67), UniProt Q5J463); test: Epi-absorbance-based counterscreen for selective VIM-2 inhibitors: dose response biochemical high throughput screening assay to identify inhibitors of TEM-1 serine-beta-lactamase.
Beta-lactamase [18] = target: T1, Beta-lactamase; test: inhibition of IMP-1 beta-lactamase activity – biochemical, epi-absorbance, selectivity assay for VIM-2 inhibitor project, dose response (AID 1920)
[19] = Counterscreen for IDE inhibitors: Luminescence-based cell-based high throughput dose response assay to identify compounds that are cytotoxic to HEK cells. [Related pubchem assays: 434962 (Primary screen (IDE inhibitors in singlicate)), 449730 (Counterscreen (Cytotoxicity in triplicate)), 435028 (Confirmation (IDE inhibitors in triplicate)) …; format: functional; conditions: HEK293
Troponin, cardiac muscle = Troponin, cardiac muscle (Homo sapiens, UniProt P19429+P45379+P63316); test: Fluorescence-based biochemical high throughput dose response assay for activators of the calcium sensitivity of cardiac Regulated Thin Filaments (RTF). [Related pubchem assays (depositor defined):AID493008, AID493018, AID504382, AID504383]; format: protein-complex assay
[20] = mitochondrial function rescue without frataxin homolog – Friedreich's ataxia, plus single-dose screen, dose response (AID 1465); format: functional;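 also: yeast depleted of Yfh1p frataxin homolog grown on glycerol needing respiration; WST-1 tetrazolium dye reduction as measure of cellular dehydrogenase metabolic activity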
Insulin-degrading enzyme = target: T2, Insulin-degrading enzyme (Homo sapiens, UniProt P14735); test: Dose Response: Fluorescence polarization-based cell-based high throughput dose response assay for inhibitors of insulin-degrading enzyme (IDE). [Related pubchem assays: 434962 (Primary screen (IDE inhibitors in singlicate)), 449730 (Counterscreen (Cytotoxicity in triplicate)), 435028 (Confirmation (IDE inhibitors in triplicate)), 434984 (Summary …; format: functional
T2 sequence (P14735 whole entry): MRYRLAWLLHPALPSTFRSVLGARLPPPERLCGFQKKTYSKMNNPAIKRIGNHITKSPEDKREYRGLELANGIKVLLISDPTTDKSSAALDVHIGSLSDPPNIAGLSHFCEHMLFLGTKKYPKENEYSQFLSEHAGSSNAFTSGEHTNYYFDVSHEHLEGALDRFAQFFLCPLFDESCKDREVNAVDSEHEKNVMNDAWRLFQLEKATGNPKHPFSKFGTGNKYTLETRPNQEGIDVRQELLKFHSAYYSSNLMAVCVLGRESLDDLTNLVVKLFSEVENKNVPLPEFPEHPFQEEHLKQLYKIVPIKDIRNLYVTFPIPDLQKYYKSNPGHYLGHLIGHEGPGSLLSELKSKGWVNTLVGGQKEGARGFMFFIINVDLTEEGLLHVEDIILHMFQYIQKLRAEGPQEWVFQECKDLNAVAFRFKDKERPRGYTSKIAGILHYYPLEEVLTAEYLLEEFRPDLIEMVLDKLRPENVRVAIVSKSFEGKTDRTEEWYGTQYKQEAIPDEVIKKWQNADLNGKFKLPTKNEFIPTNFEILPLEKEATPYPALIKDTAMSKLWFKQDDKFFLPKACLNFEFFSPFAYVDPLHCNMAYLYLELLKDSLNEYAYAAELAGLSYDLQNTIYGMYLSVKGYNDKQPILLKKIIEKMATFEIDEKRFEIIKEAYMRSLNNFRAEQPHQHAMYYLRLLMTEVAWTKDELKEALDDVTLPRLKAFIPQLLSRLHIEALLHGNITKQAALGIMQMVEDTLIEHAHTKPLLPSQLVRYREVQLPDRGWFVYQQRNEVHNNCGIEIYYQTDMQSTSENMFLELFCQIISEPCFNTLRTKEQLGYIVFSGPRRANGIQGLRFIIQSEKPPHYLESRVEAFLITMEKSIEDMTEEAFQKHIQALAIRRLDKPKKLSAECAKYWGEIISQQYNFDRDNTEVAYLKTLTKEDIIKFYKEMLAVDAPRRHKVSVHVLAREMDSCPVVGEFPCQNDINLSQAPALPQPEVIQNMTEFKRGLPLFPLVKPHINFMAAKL

[21] = blockers of bursicon-stimulated LGR2 cAMP reporter – cell-based, HEK293, CRE-luciferase reporter, cherry pick, set 2, dose response (AID 743343); format: functional;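 also: transfected cells were stimulated with diluted bursicon conditioned medium after compound addition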
[22] = target: T3, Heat shock factor protein 1 (Mus musculus, UniProt P38532); test: decrease of HSF1-responsive luciferase luminescence – cell-based, NIH3T3, dose retest, confirmation (AID 2382); format: functional;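 also: NIH3T3 fibroblasts with HSF1-driven luciferase reporter stressed by proteasome inhibitor MG132; luminescence from HSF1-driven luciferase expression after 8 hours of MG132 stress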
T3 sequence (P38532 whole entry): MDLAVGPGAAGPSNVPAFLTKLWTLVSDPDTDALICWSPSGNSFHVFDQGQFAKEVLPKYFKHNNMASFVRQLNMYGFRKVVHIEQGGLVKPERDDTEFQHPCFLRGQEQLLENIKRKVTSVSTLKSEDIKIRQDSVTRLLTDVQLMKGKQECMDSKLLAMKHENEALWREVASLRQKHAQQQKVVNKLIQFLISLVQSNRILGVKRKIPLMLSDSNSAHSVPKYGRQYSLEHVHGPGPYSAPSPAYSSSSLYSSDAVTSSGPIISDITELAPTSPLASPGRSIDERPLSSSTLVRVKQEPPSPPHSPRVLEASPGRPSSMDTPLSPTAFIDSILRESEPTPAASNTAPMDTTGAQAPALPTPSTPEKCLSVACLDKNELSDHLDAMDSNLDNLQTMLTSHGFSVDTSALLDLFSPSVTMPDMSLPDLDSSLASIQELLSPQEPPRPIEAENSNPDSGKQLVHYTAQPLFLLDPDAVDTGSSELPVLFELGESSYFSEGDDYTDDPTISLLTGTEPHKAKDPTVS

[23] = viability loss in HEK293 cells – cell-based, plate reader, cherry-picked samples, cytotoxicity control, dose response (AID 743446); format: functional
[24] = target: E3 ubiquitin-protein ligase Mdm2/Protein Mdm4 (Homo sapiens, UniProt O15151+Q00987); test: disruption of Mdm2/MdmX protein binding – luminescence detection, dose response (AID 504593); format: functional
[25] = blockade of melanocortin 4 receptor signaling – cell-based, plate reader, cherry pick, counter-screen for LGR2 antagonist project, dose response (AID 743444); format: functional;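 also: transfected HEK 293 cells stimulated with alpha-MSH peptide; potency of inhibitors of the alpha-MSH evoked signal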
[26] = A549 cell cytotoxicity, dose response, cytotoxicity control, plate reader, cherry-pick, antagonist series (AID 743412); format: functional, cell-based
[27] = HEK-293T viability loss after treatment – luminescence, T-cell screen hits, cytotoxicity control for TCR NF-kB inhibitor project, dose response (AID 489026); format: functional, cell-based;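 also: cells exposed to compound about 14 hours before the viability readout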
[28] = toxicity toward HepG2 liver cells – cell-based, plate reader, cherry-pick, antagonist series, cytotoxicity control, dose response (AID 743416); format: functional

T1 sequence (Q79MP6 whole entry): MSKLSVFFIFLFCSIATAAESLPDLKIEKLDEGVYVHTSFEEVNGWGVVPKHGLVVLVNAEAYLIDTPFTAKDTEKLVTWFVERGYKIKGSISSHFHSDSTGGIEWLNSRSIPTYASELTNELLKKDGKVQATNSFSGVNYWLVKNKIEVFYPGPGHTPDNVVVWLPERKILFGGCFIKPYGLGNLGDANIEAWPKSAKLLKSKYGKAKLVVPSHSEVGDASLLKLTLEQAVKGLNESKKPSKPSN
Chain of DNA dC->dU-editing enzyme APOBEC-3A (P31941 whole entry): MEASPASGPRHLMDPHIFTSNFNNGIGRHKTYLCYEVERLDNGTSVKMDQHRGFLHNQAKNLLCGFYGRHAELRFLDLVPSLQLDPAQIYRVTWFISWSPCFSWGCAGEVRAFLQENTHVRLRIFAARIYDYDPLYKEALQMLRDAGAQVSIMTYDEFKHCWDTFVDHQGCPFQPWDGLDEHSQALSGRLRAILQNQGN
Chain of G-protein coupled receptor 55 (Q9Y2T6 whole entry): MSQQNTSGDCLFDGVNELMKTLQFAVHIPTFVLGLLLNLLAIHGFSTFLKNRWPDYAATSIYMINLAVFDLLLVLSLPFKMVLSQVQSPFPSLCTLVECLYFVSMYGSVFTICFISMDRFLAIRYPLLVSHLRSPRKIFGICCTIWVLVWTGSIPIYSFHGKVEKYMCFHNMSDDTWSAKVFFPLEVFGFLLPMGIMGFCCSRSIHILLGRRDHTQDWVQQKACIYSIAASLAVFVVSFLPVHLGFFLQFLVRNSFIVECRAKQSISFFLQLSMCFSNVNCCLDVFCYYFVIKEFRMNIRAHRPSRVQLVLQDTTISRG
Chain of DNA dC->dU-editing enzyme APOBEC-3G (Q9HC16 whole entry): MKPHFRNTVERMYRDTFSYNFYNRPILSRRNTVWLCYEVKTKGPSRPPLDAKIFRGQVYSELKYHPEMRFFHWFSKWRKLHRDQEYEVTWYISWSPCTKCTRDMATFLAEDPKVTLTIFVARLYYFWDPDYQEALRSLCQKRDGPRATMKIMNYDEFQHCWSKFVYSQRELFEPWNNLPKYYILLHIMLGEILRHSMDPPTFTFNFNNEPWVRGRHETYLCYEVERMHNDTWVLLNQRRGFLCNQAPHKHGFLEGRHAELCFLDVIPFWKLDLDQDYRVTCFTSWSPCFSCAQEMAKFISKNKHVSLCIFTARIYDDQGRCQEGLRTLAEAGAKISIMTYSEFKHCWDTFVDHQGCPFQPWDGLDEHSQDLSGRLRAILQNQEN
Chain of E3 ubiquitin-protein ligase Mdm2/Protein Mdm4 (Q00987 whole entry): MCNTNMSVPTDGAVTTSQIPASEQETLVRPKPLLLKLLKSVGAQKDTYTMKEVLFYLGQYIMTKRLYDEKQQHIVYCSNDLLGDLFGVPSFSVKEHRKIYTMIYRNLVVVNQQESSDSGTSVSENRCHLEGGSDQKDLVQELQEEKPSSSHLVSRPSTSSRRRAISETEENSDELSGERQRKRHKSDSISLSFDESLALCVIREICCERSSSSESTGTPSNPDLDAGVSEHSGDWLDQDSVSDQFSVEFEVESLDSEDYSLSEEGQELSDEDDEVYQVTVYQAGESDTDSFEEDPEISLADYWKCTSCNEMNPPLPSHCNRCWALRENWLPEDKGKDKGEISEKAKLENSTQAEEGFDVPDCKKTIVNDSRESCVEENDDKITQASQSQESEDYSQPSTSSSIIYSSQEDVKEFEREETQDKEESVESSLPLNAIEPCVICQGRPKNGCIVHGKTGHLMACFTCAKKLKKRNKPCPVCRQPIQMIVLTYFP
Chain of E3 ubiquitin-protein ligase Mdm2/Protein Mdm4 (O15151 whole entry): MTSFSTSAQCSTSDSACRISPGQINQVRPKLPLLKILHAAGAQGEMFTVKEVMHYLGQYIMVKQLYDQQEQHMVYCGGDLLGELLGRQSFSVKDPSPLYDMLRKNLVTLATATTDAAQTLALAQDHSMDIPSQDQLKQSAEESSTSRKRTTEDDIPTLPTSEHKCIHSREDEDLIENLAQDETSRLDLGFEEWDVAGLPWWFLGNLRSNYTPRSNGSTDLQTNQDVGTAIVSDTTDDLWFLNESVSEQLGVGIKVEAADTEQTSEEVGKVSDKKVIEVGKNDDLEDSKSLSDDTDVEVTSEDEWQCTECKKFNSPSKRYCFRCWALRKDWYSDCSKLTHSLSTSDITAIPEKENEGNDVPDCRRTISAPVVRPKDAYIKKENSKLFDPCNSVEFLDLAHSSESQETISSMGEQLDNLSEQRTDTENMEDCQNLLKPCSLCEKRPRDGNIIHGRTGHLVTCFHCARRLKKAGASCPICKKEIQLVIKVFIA
Chain of Neurotensin receptor type 1 (P30989 whole entry): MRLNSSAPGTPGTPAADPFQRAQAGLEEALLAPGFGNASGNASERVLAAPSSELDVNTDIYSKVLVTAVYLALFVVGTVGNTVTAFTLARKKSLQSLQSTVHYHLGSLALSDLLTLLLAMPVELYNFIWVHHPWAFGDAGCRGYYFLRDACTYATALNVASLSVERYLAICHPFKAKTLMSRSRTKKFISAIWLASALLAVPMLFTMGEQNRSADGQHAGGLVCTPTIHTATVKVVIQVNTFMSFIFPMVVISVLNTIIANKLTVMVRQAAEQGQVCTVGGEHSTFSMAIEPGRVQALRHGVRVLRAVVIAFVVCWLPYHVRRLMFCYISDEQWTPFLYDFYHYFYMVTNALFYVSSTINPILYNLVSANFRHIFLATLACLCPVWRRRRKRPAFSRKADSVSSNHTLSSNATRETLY
Chain of Beta-lactamase (Salmonella choleraesuis (strain SC-B67), UniProt Q5J463) (Q5J463 whole entry): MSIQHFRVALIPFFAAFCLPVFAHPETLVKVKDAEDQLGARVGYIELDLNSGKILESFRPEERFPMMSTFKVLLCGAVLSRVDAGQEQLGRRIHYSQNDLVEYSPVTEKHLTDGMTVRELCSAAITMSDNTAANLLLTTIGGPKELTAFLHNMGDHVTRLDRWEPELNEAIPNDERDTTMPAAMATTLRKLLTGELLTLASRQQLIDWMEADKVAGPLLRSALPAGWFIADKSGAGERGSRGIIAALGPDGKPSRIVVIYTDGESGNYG

## CC(NCC(O)COCCC12CC3CC(CC(C3)C1)C2)c1ccccc1 (stereo not drawn)
[1]
  AC50: 6.14 µM (active)
[2]
  AC50: 3.45 µM (active)
INS1
  AC50: 7.3 µM (active)
[3]
  AC50: 16.8 µM (active)
[4]
  AC50: 11.2 µM (active)
[5]
  EC50: 0.157 µM (active)
[6]
  AC50: 6.93 µM (active)
[7]
  CC50: 12.5 µM (active)
[8]
  CC50: 12.7 µM (active)
[9]
  EC50: 19.9 µM (active)
[10]
  CC50: 13.7 µM (active)
[11]
  AC50: 13.3 µM (active)
[12]
  IC50: 3.25 µM (active)
[13]
  EC50: > 60 µM (not active)
cells
  IC50: 14.6 µM (active)

## Sc1nnc(-c2cccs2)n1C1CCCCC1
[14]
  IC50: 4.59 µM (active)
[15]
  IC50: > 100 µM (inactive)
Beta-lactamase [16]
  IC50: > 59.6 µM (inactive)
Beta-lactamase [17]
  IC50: > 59.6 µM (inactive)
Beta-lactamase [18]
  IC50: > 59.6 µM (inactive)

## N#C/C(=C\c1ccc(N2CCOCC2)o1)C(=O)NC1CCCCC1
[19]
  IC50: 31.8 µM (not active)
Troponin, cardiac muscle
  EC50: 6.89 µM (active)
[20]
  EC50: > 100 µM (active)
Insulin-degrading enzyme
  IC50: 8.05 µM (active)

## CCC(/C=C1\Oc2ccc(OC)cc2N1C)=C\c1sc2ccccc2[n+]1CCCS(=O)(=O)[O-]
Troponin, cardiac muscle
  EC50: 0.853 µM (active)

## O=c1oc2ccccc2cc1-c1cn(-c2ccccc2)c(S)n1
[21]
  AC50: 0.316 µM (active)
[22]
  EC50: < 0.16 µM (active)
[23]
  AC50: 19.4 µM (active)
[24]
  IC50: 0.00374 µM (active)
[25]
  AC50: 0.259 µM (active)
[26]
  AC50: 8.78 µM (active)
[27]
  IC50: > 80 µM (inactive)
[28]
  AC50: 19.4 µM (active)
